Here are results for 15 molecules from patent US8809352B2, “Sulfonamides as inhibitors of Bcl-2 family proteins for the treatments of cancer” (Novartis AG, priority 2009, dated 2014).

The structures appear in SMILES notation.

Sequence of BCL2 (P10415 whole entry): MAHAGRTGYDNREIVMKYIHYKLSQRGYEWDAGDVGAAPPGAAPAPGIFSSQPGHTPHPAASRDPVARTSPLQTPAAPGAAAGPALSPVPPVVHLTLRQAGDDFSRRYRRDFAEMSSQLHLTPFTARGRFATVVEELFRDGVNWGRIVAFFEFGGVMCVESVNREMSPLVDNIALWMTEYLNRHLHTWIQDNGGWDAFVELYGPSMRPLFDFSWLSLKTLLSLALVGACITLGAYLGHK

This assay addresses BCL2 (Homo sapiens, UniProt P10415). Kind of assay: Biacore SPR solution inhibition assay of BCL-2 binding to peptide derivatized sensor surfaces. To be noted: SPR competition; 56 nM BCL2 pre-equilibrated with compound one hour; biotinylated BAK, BAD and NOXA peptide surfaces; 25° C. The source says: The present method includes utility of a Surface plasmon resonance (SPR)-based biosensor (Biacore™ GE Healthcare, Uppsala, Sweden) to characterize BCL-2 inhibitors.
Biacore™ utilizes the phenomenon of surface plasmon resonance (SPR) to detect and measure binding interactions. In a typical Biacore experiment, one of the interacting molecules (ligand) is immobilized on a flexible dextran matrix while the interacting partner (analyte) is allowed to flow across that surface. A binding interaction results in an increase in mass on the sensor surface and a corresponding direct change in the refractive index of the medium in the vicinity of the sensor surface. Changes in refractive index or signal are recorded in resonance units (R.U.) Signal changes due to association and dissociation of complexes are monitored in a non-invasive manner, continuously and in real-time, the results of which are reported in the form of a sensorgram. The SPR assay is configured to examine solution inhibition of BCL-2 binding to peptide derivatized sensor surfaces to generate […] values as a measure of inhibitor potency.
Biacore™ A100 (GE Healthcare, Uppsala, Sweden) was used to conduct all experiments reported herein. Sensor surface preparation and all interaction analyses experiments were performed at 25° C. Reagents were purchased from GE Healthcare. Running buffer containing 10 mM Hepes, pH7.4, 150 mM sodium chloride, 1.25 mM Dithiothreitol, 3% Dimethyl sulfoxide and 0.05% polysorbate 20 were utilized throughout all analyses.
Biotinylated BAK, BAD and NOXA peptides were diluted to 10 nM in running buffer and captured onto a sensor surface pre-derivatized with streptavidin (sensor chip SA) to peptide surface densities in the range 50-100 R.U. Peptide captured surfaces were blocked with 500 μM PEO2-Biotin.
Interaction analyses were performed by first equilibrating each sample within a 6 point three fold compound dilution series in the range 16 μM to 0.004 nM with 56 nM BCL2 for one hour during instrument start-up procedures. Protein compound mixtures were then injected over each peptide surface in parallel for 60 seconds at a flow-rate of 30 μL/min. 56 nM BCL2 control samples were also prepared and run at regular intervals during the assay. Surface regeneration was performed at the end of each analysis cycle by two 30 second injections of 10 mM Glycine, pH 2.5, 1M Sodium Chloride, 0.05% polysorbate 20. Samples and control compound samples were run in duplicate and controls are also run at regular intervals during the assay to monitor surface and assay performance.
Data analyses are carried out using Biacore™ A100 evaluation software v1.1 to validate assay quality. Binding level report points were used relative to BCL2 control samples to calculate % inhibition values for each compound protein mixture.
As for `CC(c1cc(F)ccc1-c1ccc(Cl)cc1)N1CCC(N2CCc3c(ncnc3NS(=O)(=O)c3ccc(N[C@H](CCN4CCOCC4)CSc4ccccc4)c(S(=O)(=O)C(F)(F)F)c3)C2)CC1` (stereo partly drawn) [Example 31, N-(7-(1-(1-(4′-chloro-4-fluorobiphenyl-2-yl)ethyl)piperidin-4-yl)-5,6,7,8-tetrahydropyrido[3,4-d]pyrimidin-4-yl)-4-((R)-4-morpholino-1-(phenylthio)butan-2-ylamino)-3-(trifluoromethylsulfonyl)benzenesulfonamide], the IC50 (in general, the midpoint of a concentration-inhibition curve) is 84 nM.

Turning to `CN(C)CC[C@H](CSc1ccccc1Cl)Nc1ccc(S(=O)(=O)Nc2nc(C(F)(F)F)nc3c2CCN(C2CCN(CC4=C(c5ccc(Cl)cc5)CC(C)(C)CC4)CC2)C3)cc1S(=O)(=O)C(F)(F)F` [Example 32, (R)-N-(7-(1-((2-(4-chlorophenyl)-4,4-dimethylcyclohex-1-enyl)methyl)piperidin-4-yl)-2-(trifluoromethyl)-5,6,7,8-tetrahydropyrido[3,4-d]pyrimidin-4-yl)-4-(1-(2-chlorophenylthio)-4-(dimethylamino)butan-2-ylamino)-3-(trifluoromethylsulfonyl)benzenesulfonamide], the half-inhibitory concentration (IC50) was determined as 87 nM.

`CN(C)CC[C@H](CSc1ccccc1Cl)Nc1ccc(S(=O)(=O)Nc2nc(C(F)(F)F)nc3c2CCN(C2CCN(Cc4ccccc4-c4ccc(Cl)cc4)CC2)C3)cc1S(=O)(=O)C(F)(F)F` [Example 33, (R)-N-(7-(1-((4′-chlorobiphenyl-2-yl)methyl)piperidin-4-yl)-2-(trifluoromethyl)-5,6,7,8-tetrahydropyrido[3,4-d]pyrimidin-4-yl)-4-(1-(2-chlorophenylthio)-4-(dimethylamino)butan-2-ylamino)-3-(trifluoromethylsulfonyl)benzenesulfonamide]: the IC50 stood at 73 nM.

As to `CC(c1ccccc1-c1ccc(Cl)cc1)N1CCC(N2CCc3c(nc(C(F)(F)F)nc3NS(=O)(=O)c3ccc(N[C@H](CCN(C)C)CSc4ccccc4Cl)c(S(=O)(=O)C(F)(F)F)c3)C2)CC1` (stereo partly drawn) [Example 34, N-(7-(1-(1-(4′-chlorobiphenyl-2-yl)ethyl)piperidin-4-yl)-2-(trifluoromethyl)-5,6,7,8-tetrahydropyrido[3,4-d]pyrimidin-4-yl)-4-((R)-1-(2-chlorophenylthio)-4-(dimethylamino)butan-2-ylamino)-3-(trifluoromethylsulfonyl)benzenesulfonamide], the IC50 amounted to 99 nM.

Take `CC(c1cc(F)ccc1-c1ccc(Cl)cc1)N1CCC(N2CCc3c(ncnc3NS(=O)(=O)c3ccc(N[C@H](CCN4CCN(C)CC4)CSc4ccccc4)c(S(=O)(=O)C(F)(F)F)c3)C2)CC1` (stereo partly drawn) [Example 35, N-(7-(1-(1-(4′-chloro-4-fluorobiphenyl-2-yl)ethyl)piperidin-4-yl)-5,6,7,8-tetrahydropyrido[3,4-d]pyrimidin-4-yl)-4-((R)-4-(4-methylpiperazin-1-yl)-1-(phenylthio)butan-2-ylamino)-3-(trifluoromethylsulfonyl)benzenesulfonamide]: the IC50 amounted to 80 nM.

In the case of `COc1ccc(-c2ccc(Cl)cc2)c(CN2CCC(N3CCc4c(ncnc4NS(=O)(=O)c4ccc(N[C@H](CCN(C)C)CSc5ccccc5)c(S(=O)(=O)C(F)(F)F)c4)C3)CC2)c1` [Example 36, (R)-N-(7-(1-((4′-chloro-4-methoxybiphenyl-2-yl)methyl)piperidin-4-yl)-5,6,7,8-tetrahydropyrido[3,4-d]pyrimidin-4-yl)-4-(4-(dimethylamino)-1-(phenylthio)butan-2-ylamino)-3-(trifluoromethylsulfonyl)benzenesulfonamide], the IC50 is 34 nM.

Turning to `CN(C)CC[C@H](CSc1ccc(F)cc1)Nc1ccc(S(=O)(=O)Nc2ncnc3c2CCN(C2CCN(Cc4ccccc4-c4ccc(Cl)cc4)CC2)C3)cc1S(=O)(=O)C(F)(F)F` [Example 37, N-{7-[1-(4′-Chloro-biphenyl-2-ylmethyl)-piperidin-4-yl]-5,6,7,8-tetrahydro-pyrido[3,4-d]pyrimidin-4-yl}-4-[(R)-3-dimethylamino-1-(4-fluoro-phenylsulfanylmethyl)-propylamino]-3-trifluoromethanesulfonyl-benzenesulfonamide], the IC50 was found to be 58 nM.

Regarding `CN(C)CC[C@H](CSc1c(Cl)cccc1Cl)Nc1ccc(S(=O)(=O)Nc2ncnc3c2CCN(C2CCN(Cc4ccccc4-c4ccc(Cl)cc4)CC2)C3)cc1S(=O)(=O)C(F)(F)F` [Example 38, (R)-N-(7-(1-((4′-chlorobiphenyl-2-yl)methyl)piperidin-4-yl)-5,6,7,8-tetrahydropyrido[3,4-d]pyrimidin-4-yl)-4-(1-(2,6-dichlorophenylthio)-4-(dimethylamino)butan-2-ylamino)-3-(trifluoromethylsulfonyl)benzenesulfonamide], the IC50 was 41 nM.

Regarding `CN(C)CC[C@H](CSc1ccc(Cl)c(Cl)c1)Nc1ccc(S(=O)(=O)Nc2ncnc3c2CCN(C2CCN(Cc4ccccc4-c4ccc(Cl)cc4)CC2)C3)cc1S(=O)(=O)C(F)(F)F` [Example 39, N-{7-[1-(4′-Chloro-biphenyl-2-ylmethyl)-piperidin-4-yl]-5,6,7,8-tetrahydro-pyrido[3,4-d]pyrimidin-4-yl}-4-[(R)-1-(3,4-dichloro-phenylsulfanylmethyl)-3-dimethylamino-propylamino]-3-trifluoromethanesulfonyl-benzenesulfonamide], the half-maximal inhibitory concentration (IC50) was 41 nM.

Consider `CN(C)CC[C@H](CSc1ccccc1Cl)Nc1ccc(S(=O)(=O)Nc2ncnc3c2CCN(C2CCN(Cc4ccccc4-c4ccc(Cl)cc4)CC2)C3)cc1S(=O)(=O)C(F)(F)F` [Example 40], for which the IC50 is 32 nM.

With `CN(C)CC[C@H](CSc1cc(Cl)cc(Cl)c1)Nc1ccc(S(=O)(=O)Nc2ncnc3c2CCN(C2CCN(Cc4ccccc4-c4ccc(Cl)cc4)CC2)C3)cc1S(=O)(=O)C(F)(F)F` [Example 41, (R)-N-(7-(1-((4′-chlorobiphenyl-2-yl)-methyl)piperidin-4-yl)-5,6,7,8-tetrahydropyrido[3,4-c]pyrimidin-4-yl)-4-(1-(3,5-dichlorophenylthio)-4-(dimethylamino)butan-2-ylamino)-3-(trifluoromethylsulfonyl)benzenesulfonamide], the IC50 is 259 nM.

In the case of `CC(c1ccccc1-c1ccc(Cl)cc1)N1CCC(N2CCc3c(ncnc3NS(=O)(=O)c3ccc(N[C@H](CCN4CCOCC4)CSc4ccccc4)c(S(=O)(=O)C(F)(F)F)c3)C2)CC1` (stereo partly drawn) [Example 42, N-(7-(1-(1-(4′chlorobiphenyl-2-yl)ethyl)piperidin-4-yl)-5,6,7,8-tetrahydropyrido[3,4-d]pyrimidin-4-yl)-4-((R)-4-morpholino-1-(phenylthio)butan-2-ylamino)-3-(trifluoromethylsulfonyl)benzenesulfonamide], the IC50 stood at 97 nM.

Consider `CCC[C@H](CSc1ccccc1)Nc1ccc(S(=O)(=O)Nc2ncnc3c2CCN(C2CCN(Cc4ccccc4-c4ccc(Cl)cc4)CC2)C3)cc1S(=O)(=O)C(F)(F)F` [Example 43, (R)-N-(7-(1-((4′-chlorobiphenyl-2-yl)methyl)piperidin-4-yl)-5,6,7,8-tetrahydropyrido[3,4-d]pyrimidin-4-yl)-4-(1-(phenylthio)pentan-2-ylamino)-3-(trifluoromethylsulfonyl)benzenesulfonamide], for which the IC50 amounted to 2420 nM.

`C[C@H](CSc1ccccc1)Nc1ccc(S(=O)(=O)Nc2ncnc3c2CCN(C2CCN(Cc4ccccc4-c4ccc(Cl)cc4)CC2)C3)cc1S(=O)(=O)C(F)(F)F` [Example 44, N-(7-(1((4′-chlorobiphenyl-2-yl)-methyl)piperidin-4-yl)-5,6,7,8-tetrahydropyrido[3,4-d]pyrimidin-4-yl)-4-(1-(phenylthio)propan-2-ylamino)-3-(trifluoromethylsulfonyl)benzenesulfonamide]: the IC50 was 235 nM.

Take `C[C@H](CSc1ccccc1)Nc1ccc(S(=O)(=O)Nc2ncnc3c2CCN(C2CCN(CC4=C(c5ccc(Cl)cc5)CC(C)(C)CC4)CC2)C3)cc1S(=O)(=O)C(F)(F)F` [Example 45, N-(7-(1-((2-(4-chlorophenyl)-4,4-dimethylcyclohex-1-enyl)methyl)piperidin-4-yl)-5,6,7,8-tetrahydropyrido[3,4-d]pyrimidin-4-yl)-4-(1-(phenylthio)propan-2-ylamino)-3-(trifluoromethylsulfonyl)benzenesulfonamide]: the IC50 turned out to be 365 nM.
